The subject of one experiment is M. suipneumoniae NB12. Put plainly: MIC against mycoplasma in vitro. Format: cell-based. Conditions: Mesomycoplasma hyopneumoniae.
The next experiment deals with M. suipneumoniae JF 435. Put plainly: MIC against mycoplasma in vitro. In kind it is cell-based. Conditions: Mesomycoplasma hyopneumoniae, JF435, 144 h.
For a further experiment, the system named is M. suipneumoniae Str. 11. Kind of experiment: MIC against mycoplasma in vitro. Format: cell-based. To be noted: Mesomycoplasma hyopneumoniae, 144 h; M. suipneumoniae Str. 11; 6 days, 37° C.; read-out: MIC.
Experiment [1] has as its system M. suipneumoniae J2206/183^b. Put plainly: MIC against mycoplasma in vitro. To be noted: Mesomycoplasma hyopneumoniae, 144 h. Format: cell-based.
Experiment [2] has as its system M. suipneumoniae NCTC 10110. Put plainly: MIC against mycoplasma in vitro. In kind it is cell-based. Conditions: Mesomycoplasma hyopneumoniae, NCTC10110, 144 h.
The subject of experiment [3] is M. hyosynoviae ATCC 25591. Kind of experiment: MIC against mycoplasma in vitro. In kind it is cell-based. To be noted: 144 h.
For a further experiment, the system named is M. bovis NCTC 10131. Kind of experiment: microbe, parasite or virus in culture. Format: cell-based. To be noted: NCTC10131, 144 h.
Experiment [4] has as its system M. bovigenitalium ATCC 14173. Kind of experiment: MIC against mycoplasma in vitro. Conditions: 144 h. Format: cell-based.
The next experiment concerns M. gallisepticum S6. Kind of experiment: MIC against mycoplasma in vitro. Format: cell-based. Conditions: Mycoplasmoides gallisepticum.
The subject of another experiment is M. pneumoniae ATCC 15492. Kind of experiment: MIC against mycoplasma in vitro. To be noted: Mycoplasmoides pneumoniae, ATCC15492, 144 h. Format: cell-based.
Experiment [5] has as its system Ps. aeruginosa NCTC 10662. Put plainly: MIC against human bacteria in vitro. Conditions: Pseudomonas aeruginosa, NCTC10662; Ps. aeruginosa NCTC 10662; 5% chocolated horse blood agar, 18 hours; read-out: MIC. In kind it is cell-based.
Experiment [6] has as its system Haemophilus influenzae Wy21. Put plainly: MIC against human bacteria in vitro. In kind it is cell-based. Conditions: Haemophilus influenzae Wy21; 5% chocolated horse blood agar, 18 hours; read-out: MIC.
Experiment [7] relates to Strep. pyogenes R80/421-A. Kind of experiment: MIC against human bacteria in vitro. In kind it is cell-based. Conditions: Streptococcus pyogenes; Strep. pyogenes R80/421-A; 5% chocolated horse blood agar, 18 hours; read-out: MIC.
For another experiment, the system named is E. coli NCTC 10418. Put plainly: MIC against veterinary bacteria in vitro. Conditions: Escherichia coli, NCTC10418, 18 h.
In another experiment the test system is S. typhimurium S18. Kind of experiment: MIC against veterinary bacteria in vitro. To be noted: Salmonella enterica, TYPHIMURIUM, 18 h.
Another experiment deals with Past. haemolytica PA5. Put plainly: MIC against veterinary bacteria in vitro. Conditions: Mannheimia haemolytica, PA5, 18 h.
Experiment [8] has as its system Erysipelothrix rhusiopathiae NCTC 8163. Put plainly: MIC against veterinary bacteria in vitro. To be noted: Erysipelothrix rhusiopathiae, NCTC8163, 18 h.
Experimental: (§1) The activity of the compounds of the Examples against various veterinarily important bacteria, was assayed in vitro using two-fold serial dilutions in Diagnostic Sensitivity Test Agar inoculated with 10^4 organisms.
In experiment [9] the test system is Corynebacterium pyogenes CY1. Put plainly: MIC against veterinary bacteria in vitro. To be noted: CY1, 18 h.
Experimental: as §1
Experiment [10] has as its system Staph. aureus 152 (pen. sens). Put plainly: MIC against veterinary bacteria in vitro. To be noted: Staphylococcus aureus, 18 h.
Experimental: as §1
In the next experiment the test system is Staph. aureus Oxford. Kind of experiment: MIC against veterinary bacteria in vitro. Conditions: Staphylococcus aureus, 18 h.
A further experiment deals with Strep. uberis SPU1. Kind of experiment: MIC against veterinary bacteria in vitro. To be noted: Streptococcus uberis, SPU1, 18 h.
The subject of another experiment is B. subtilis ATCC 6633. Kind of experiment: MIC against veterinary bacteria in vitro. Conditions: Bacillus subtilis, ATCC6633, 18 h.
Setting [11] is: 144 h, M. suipneumoniae NB12, Friis broth, 0.9% agarose, 6 days, 37° C., read-out: MIC.
The mark [12] stands for this setting: 144 h, M. gallisepticum S6, 6 days, 37° C., read-out: MIC.
Setting [13] is: M. pneumoniae ATCC 15492, 6 days, 37° C., read-out: MIC.

Experimental findings from US5041567A, “Antibacterial monic acid derivatives” (Beecham Group plc, priority 1982, dated 1991) are described below.

SMILES strings stand for the structures. Values after ≈ are worked out from the molar mass of the structure shown. Like-named read-outs stand apart in the source and are kept apart here.

Experimental for B. subtilis ATCC 6633: as §1
Experimental for E. coli NCTC 10418: as §1
Experimental for Past. haemolytica PA5: as §1
Experimental for S. typhimurium S18: as §1
Experimental for Staph. aureus Oxford: as §1
Experimental for Strep. uberis SPU1: as §1

On to `C/C(=C\c1ncc(-c2cccc(S(C)(=O)=O)c2)o1)C[C@@H]1OC[C@H](C[C@@H]2O[C@H]2[C@@H](C)[C@H](C)O)[C@@H](O)[C@H]1O` [Example 23, 5-m-Methylsulphonylphenyl-2-(1-normon-2-yl) oxazole A], for which the MIC with M. suipneumoniae NB12 (setting [11]) worked out at 0.5 µg/mL (≈ 0.959 µM); against M. suipneumoniae JF 435 it was 1 µg/mL (≈ 1.92 µM); in the experiment with M. suipneumoniae Str. 11, 0.5 µg/mL (≈ 0.959 µM); in [1] it was 1 µg/mL (≈ 1.92 µM); in [2] it was 1 µg/mL (≈ 1.92 µM); in [3], 1 µg/mL (≈ 1.92 µM). For the same molecule, the MIC in the experiment with M. bovis NCTC 10131 is 0.025 µg/mL (≈ 0.0479 µM); in experiment [4] it was 0.1 µg/mL (≈ 0.192 µM); against M. gallisepticum S6 (S6, 144 h) it was 1 µg/mL (≈ 1.92 µM); in the experiment on M. pneumoniae ATCC 15492 it was 1 µg/mL (≈ 1.92 µM); in experiment [5], > 64 µg/mL; in experiment [6] it was 1 µg/mL (≈ 1.92 µM). In addition, the MIC in [7] was 0.5 µg/mL (≈ 0.959 µM); in the experiment on E. coli NCTC 10418, > 80 µg/mL; in the experiment on S. typhimurium S18, > 80 µg/mL; against Past. haemolytica PA5, 80 µg/mL (≈ 153 µM); in experiment [8], > 80 µg/mL; in experiment [9], > 80 µg/mL. Further, the MIC in experiment [10] turned out to be 2.5 µg/mL (≈ 4.79 µM); against Staph. aureus Oxford it was 10 µg/mL (≈ 19.2 µM); in the experiment with Strep. uberis SPU1, 0.625 µg/mL (≈ 1.2 µM); against B. subtilis ATCC 6633, 1.25 µg/mL (≈ 2.4 µM).

Regarding `C/C(=C\c1ncc(-c2ccc(S(=O)(=O)N(C)C)cc2)o1)C[C@@H]1OC[C@H](C[C@@H]2O[C@H]2[C@@H](C)[C@H](C)O)[C@@H](O)[C@H]1O` [Example 24, 5-p-Dimethylaminosulphonylphenyl-2-(1-normon-2-yl)oxazole A], the MIC in the experiment with M. suipneumoniae NB12 (setting [11]) worked out at 0.1 µg/mL (≈ 0.182 µM); against M. suipneumoniae JF 435 it was 0.25 µg/mL (≈ 0.454 µM); with M. suipneumoniae Str. 11, 0.1 µg/mL (≈ 0.182 µM); in experiment [1], 0.25 µg/mL (≈ 0.454 µM); in [2], 0.25 µg/mL (≈ 0.454 µM); in experiment [3] it was 0.25 µg/mL (≈ 0.454 µM). Also, the MIC with M. bovis NCTC 10131 is 0.025 µg/mL (≈ 0.0454 µM); in [4], 0.1 µg/mL (≈ 0.182 µM); with M. gallisepticum S6 (setting [12]) it was 0.5 µg/mL (≈ 0.908 µM); in the experiment on M. pneumoniae ATCC 15492 (setting [13]), 0.5 µg/mL (≈ 0.908 µM); in [5] it was > 64 µg/mL; in experiment [6], 4 µg/mL (≈ 7.26 µM). Further, the MIC in [7] was 2 µg/mL (≈ 3.63 µM); in the experiment on E. coli NCTC 10418, > 80 µg/mL; against S. typhimurium S18, > 80 µg/mL; in the experiment with Past. haemolytica PA5, 40 µg/mL (≈ 72.6 µM); in experiment [8], 40 µg/mL (≈ 72.6 µM); in [9], 80 µg/mL (≈ 145 µM). Further, the MIC came out at 0.625 µg/mL (≈ 1.13 µM) in experiment [10], 1.25 µg/mL (≈ 2.27 µM) in the experiment on Staph. aureus Oxford, 0.312 µg/mL (≈ 0.567 µM) against Strep. uberis SPU1 and 0.312 µg/mL (≈ 0.567 µM) against B. subtilis ATCC 6633.

On to `C/C(=C\c1ncc(Cc2ccccc2)o1)C[C@@H]1OC[C@H](C[C@@H]2O[C@H]2[C@@H](C)[C@H](C)O)[C@@H](O)[C@H]1O` [Example 27, 5-Benzyl-2-(1-normon-2-yl)oxazole A], for which the MIC was 5 µg/mL (≈ 10.9 µM) against M. suipneumoniae NB12 (NB12, 144 h); 10 µg/mL (≈ 21.9 µM) in the experiment with M. suipneumoniae JF 435 (M. suipneumoniae JF 435, 6 days, 37° C., read-out: MIC); 5 µg/mL (≈ 10.9 µM) with M. suipneumoniae Str. 11; 10 µg/mL (≈ 21.9 µM) in experiment [1] (M. suipneumoniae J2206/183^b, 6 days, 37° C., read-out: MIC); 10 µg/mL (≈ 21.9 µM) in experiment [2] (M. suipneumoniae NCTC 10110, 6 days, 37° C., read-out: MIC); 2.5 µg/mL (≈ 5.46 µM) in experiment [3]. In addition, the MIC in the experiment on M. bovis NCTC 10131 is 0.05 µg/mL (≈ 0.109 µM); in experiment [4] it was 0.25 µg/mL (≈ 0.546 µM); with M. gallisepticum S6 (setting [12]) it was > 10 µg/mL; with M. pneumoniae ATCC 15492 (setting [13]), 10 µg/mL (≈ 21.9 µM); in experiment [5], > 64 µg/mL; in experiment [6] it was 2 µg/mL (≈ 4.37 µM). Also, the MIC in [7] is 4 µg/mL (≈ 8.74 µM); against E. coli NCTC 10418 it was > 80 µg/mL; in the experiment on S. typhimurium S18, > 80 µg/mL; in [8], > 80 µg/mL; in [9] it was > 80 µg/mL; in experiment [10] it was 10 µg/mL (≈ 21.9 µM). The values for the MIC with Staph. aureus Oxford, in the experiment with Strep. uberis SPU1 and against B. subtilis ATCC 6633 were 10 µg/mL (≈ 21.9 µM), 1.25 µg/mL (≈ 2.73 µM) and 2.5 µg/mL (≈ 5.46 µM), respectively.
